Test results taken from publication PMC3914206.

Tests used:
Format in all cases: binding
panel of 442 kinases [1] = biological target: T1, panel of 442 kinases (Homo sapiens, UniProt Q86Y07); details: kinase VRK2; compound concentration 10 µM
T1 construct: purchased KINOMEscan
Description: (§1) We assessed the selectivity of members of this scaffold using the KINOMEscan methodology across a near comprehensive panel of 442 kinases [[18,27]].

panel of 442 kinases [2] = biological target: T2, panel of 442 kinases (Homo sapiens, UniProt Q96GD4); details: Compound Concentration 10 µM
T2 construct: purchased KINOMEscan
T2 sequence (Q96GD4 whole entry): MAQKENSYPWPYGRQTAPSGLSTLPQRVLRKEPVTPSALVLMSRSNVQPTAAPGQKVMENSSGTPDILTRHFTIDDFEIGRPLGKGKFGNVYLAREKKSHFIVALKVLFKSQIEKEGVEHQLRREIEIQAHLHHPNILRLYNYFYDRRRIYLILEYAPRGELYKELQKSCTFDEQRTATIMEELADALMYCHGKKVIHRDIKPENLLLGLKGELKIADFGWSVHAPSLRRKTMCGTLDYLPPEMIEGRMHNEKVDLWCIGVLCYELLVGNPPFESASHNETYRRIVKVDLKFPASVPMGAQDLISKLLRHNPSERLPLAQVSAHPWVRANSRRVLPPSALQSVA
Description: as §1

panel of 442 kinases [3] = biological target: T3, panel of 442 kinases (Homo sapiens, UniProt P51812); details: Compound Concentration 10 µM
T3 construct: purchased KINOMEscan
T3 sequence (P51812 whole entry): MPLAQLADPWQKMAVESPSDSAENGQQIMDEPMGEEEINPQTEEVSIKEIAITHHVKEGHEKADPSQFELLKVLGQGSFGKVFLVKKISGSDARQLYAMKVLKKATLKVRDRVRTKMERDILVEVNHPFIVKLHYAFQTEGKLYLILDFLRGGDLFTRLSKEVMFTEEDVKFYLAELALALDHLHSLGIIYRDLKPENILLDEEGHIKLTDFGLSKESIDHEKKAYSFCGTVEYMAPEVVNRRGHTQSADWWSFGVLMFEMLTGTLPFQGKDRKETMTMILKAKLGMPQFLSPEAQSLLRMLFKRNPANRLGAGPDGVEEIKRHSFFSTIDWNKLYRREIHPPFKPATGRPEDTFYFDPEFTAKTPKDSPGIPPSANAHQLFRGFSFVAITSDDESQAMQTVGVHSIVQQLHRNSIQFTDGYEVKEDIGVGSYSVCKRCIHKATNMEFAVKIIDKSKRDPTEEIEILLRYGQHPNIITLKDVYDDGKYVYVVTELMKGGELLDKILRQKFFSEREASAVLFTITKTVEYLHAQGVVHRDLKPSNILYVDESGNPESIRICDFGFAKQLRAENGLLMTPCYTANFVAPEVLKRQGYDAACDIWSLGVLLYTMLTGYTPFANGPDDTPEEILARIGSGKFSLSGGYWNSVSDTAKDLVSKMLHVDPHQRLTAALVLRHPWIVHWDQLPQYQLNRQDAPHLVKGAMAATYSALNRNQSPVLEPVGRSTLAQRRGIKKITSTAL
Description: as §1

panel of 442 kinases [4] = biological target: T4, panel of 442 kinases (Homo sapiens, UniProt Q00526); details: Compound Concentration 10 µM
T4 construct: purchased KINOMEscan
T4 sequence (Q00526 whole entry): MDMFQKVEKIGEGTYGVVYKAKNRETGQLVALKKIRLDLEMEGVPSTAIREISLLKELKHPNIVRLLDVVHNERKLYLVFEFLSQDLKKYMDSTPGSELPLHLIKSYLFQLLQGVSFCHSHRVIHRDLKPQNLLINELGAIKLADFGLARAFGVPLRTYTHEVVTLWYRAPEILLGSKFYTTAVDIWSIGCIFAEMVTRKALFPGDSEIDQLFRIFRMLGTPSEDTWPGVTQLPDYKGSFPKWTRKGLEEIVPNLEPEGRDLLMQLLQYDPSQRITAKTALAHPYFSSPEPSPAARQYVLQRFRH
Description: as §1

T1 sequence (Q86Y07 whole entry): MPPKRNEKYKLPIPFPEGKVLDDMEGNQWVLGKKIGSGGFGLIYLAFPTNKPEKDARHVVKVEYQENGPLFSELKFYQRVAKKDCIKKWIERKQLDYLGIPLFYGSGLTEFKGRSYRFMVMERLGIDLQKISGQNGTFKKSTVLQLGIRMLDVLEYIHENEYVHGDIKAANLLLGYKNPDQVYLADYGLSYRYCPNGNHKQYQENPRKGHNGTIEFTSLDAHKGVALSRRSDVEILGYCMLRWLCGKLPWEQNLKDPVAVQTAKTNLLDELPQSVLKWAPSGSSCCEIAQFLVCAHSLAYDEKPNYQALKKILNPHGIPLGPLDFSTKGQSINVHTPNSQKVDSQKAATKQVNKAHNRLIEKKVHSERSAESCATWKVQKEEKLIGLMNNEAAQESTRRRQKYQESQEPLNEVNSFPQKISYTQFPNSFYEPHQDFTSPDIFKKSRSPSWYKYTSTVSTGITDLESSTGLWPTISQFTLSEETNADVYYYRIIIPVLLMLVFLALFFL

In the case of COc1cc(C(=O)N2CCC(N3CCN(C)CC3)CC2)ccc1Nc1ncc2c(n1)N(C1CCCC1)c1ccccc1C(=O)N2C [Compound 25, 11-cyclopentyl-2-((2-methoxy-4-(4-(4-methylpiperazin-1-yl)piperidine-1-carbonyl)phenyl)amino)-5-methyl-5H-benzo[e]pyrimido[5,4-b][1,4]diazepin-6(11H)-one], the “% Ctrl, VRK2” value (panel of 442 kinases [1]) is reported as 100 % Ctrl, the “KINOMEscan: AURKB” value (panel of 442 kinases [2]) is reported as 60 and the “KINOMEscan: RSK2(Kin.Dom.1-N-terminal)” value (panel of 442 kinases [3]) is reported as 100. For the same compound, the “KINOMEscan: CDK3” value (panel of 442 kinases [4]) was 100.

For CCOc1cc(C(=O)N2CCC(N3CCN(C)CC3)CC2)ccc1Nc1ncc2c(n1)N(C1CCCC1)c1ccccc1C(=O)N2C [Compound 26], the “% Ctrl, VRK2” value (panel of 442 kinases [1]) was 82 % Ctrl, the “KINOMEscan: AURKB” value (panel of 442 kinases [2]) was 100 and the “KINOMEscan: RSK2(Kin.Dom.1-N-terminal)” value (panel of 442 kinases [3]) was 100. The “KINOMEscan: CDK3” value (panel of 442 kinases [4]) was 100.

In the case of COc1cc(C(=O)N2CCC(N3CCN(C)CC3)CC2)ccc1Nc1ncc2c(n1)N1CCc3cccc(c31)C(=O)N2C [Compound 24], the “% Ctrl, VRK2” value (panel of 442 kinases [1]) is reported as 100 % Ctrl.

In the case of COc1cc(C(=O)N2CCC(N3CCN(C)CC3)CC2)ccc1Nc1ncc2c(n1)N(C)c1ccccc1C(=O)N2C [15 (LRRK2-IN-1)], the “% Ctrl, VRK2” value (panel of 442 kinases [1]) is reported as 99 % Ctrl, the “KINOMEscan: AURKB” value (panel of 442 kinases [2]) is reported as 38 and the “KINOMEscan: RSK2(Kin.Dom.1-N-terminal)” value (panel of 442 kinases [3]) is reported as 77. The “KINOMEscan: CDK3” value (panel of 442 kinases [4]) was 100.
